Measurements published in patent publication US9096554B2, “Drugs for inhibiting p38 and uses thereof” (UNIVERSIDAD AUTÓNOMA DE MADRID, priority 2011, dated 2015).
“Also recorded” adds a separate entry of the source.

What was measured:
[1] = system: TNF-α secretion in response to bacterial LPS in human monocytes (THP-1); test: TNF-α secretion in response to LPS in THP-1 monocytes (ELISA); type: cell-based
Protocol: (§1) This assay was performed to analyze the effect of the compounds of the invention on tumor necrosis factor alpha (TNF-α) secretion in response to bacterial lipopolysaccharide (LPS) in human monocytes (THP-1) and on the survival of said THP-1 monocytes in the presence of said compounds.
(§2) Briefly, cells from human monocytic cell line THP-1 (ATCC) at a density of about 10^6 cells/ml were stimulated with bacterial LPS (Sigma, Ref.# L2654) at a concentration of 1 mg/ml for 4 hours in the presence of the compounds of the invention dissolved in dimethyl sulfoxide (DMSO) at different concentrations (0.001, 0.01, 0.1, 1, 10 and 100 μM). The amount of TNF-α secreted into the medium in response to LPS was quantified by means of an ELISA assay (BioTrak, Ref.# RPN2758, GE-Amersham) following the manufacturer's instructions. Cell viability was quantified by means of flow cytometry FACS (FACScalibur, Becton Dickinson) after staining the treated cells with propidium iodide (1 mg/l) and quantifying the amount of positive cells for this stain (Software Cell Quest Pro).
These assays were performed to compare the effect of the compounds of the invention (compounds 1, 2 and 3) on tumor necrosis factor alpha (TNF-α) secretion in response to bacterial lipopolysaccharide (LPS) in human monocytes (THP-1) with respect to compounds that are structurally related but have a different substitution pattern in the phenyl ring. Conditions similar to those described in Example 7 were used.

[2] = Paw thickness as measurement of ongoing inflammation; type: in vivo, mice; conditions: six days after treatment, FIG. 11E
p38 MAPK = p38 MAPK (Homo sapiens, UniProt Q16539); test: Inhibition of MEF2A phosphorylation by p38 MAPK in vitro; type: biochemical; conditions: MEF2A (10 nM) phosphorylation by active recombinant p38 (1 nM), 5 minutes
Chain of p38 MAPK (Q16539 whole entry): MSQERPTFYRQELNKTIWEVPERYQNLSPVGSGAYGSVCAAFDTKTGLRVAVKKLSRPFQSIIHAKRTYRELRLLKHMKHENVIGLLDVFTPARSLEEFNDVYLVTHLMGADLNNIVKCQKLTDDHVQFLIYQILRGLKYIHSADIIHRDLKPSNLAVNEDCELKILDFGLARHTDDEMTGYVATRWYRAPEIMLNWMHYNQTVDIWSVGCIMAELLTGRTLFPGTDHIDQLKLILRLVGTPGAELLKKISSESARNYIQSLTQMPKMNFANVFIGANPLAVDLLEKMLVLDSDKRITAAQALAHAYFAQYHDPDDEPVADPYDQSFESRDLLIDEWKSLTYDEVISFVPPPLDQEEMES
Protocol: This assay was performed to quantify the effect of the compounds of the invention on MEF2-A phosphorylation by p38 MAPK in vitro.
To that end, briefly, active recombinant p38 (1 nM) and MEF2A (10 nM) were incubated with different concentrations of Compound 1 in a kinase buffer for 5 minutes. The proteins were resolved using SDS-PAGE and the activity of p38 was measured as phosphorylated MEF2A using anti-P-MEF2A (T312), a specific antibody. The mean of the results is graphically depicted as a percentage with respect to the controls (DMSO) of two independent experiments conducted in duplicate. For comparative purposes, Compound 5 at a concentration of 10 μM was used.
Finally, the in vitro mean inhibitory concentration (IC50) of this reaction for each assayed compound was determined as the measurement of the efficacy of a compound for inhibiting this biochemical function using a sufficient range of concentrations of each of these compounds (data not shown).

[3] = system: wild-type mice of strain C54BL/6; test: Hyperalgesia induced by high doses of carrageenan in wild-type mice, intrathecal injection; type: in vivo; conditions: for analgesic effect: FIG. 11A
Protocol: The administration of high doses of carrageenan is known to induce hyperalgesia and prolonged inflammation in wild-type mice. Briefly, 16 female wild-type mice of strain C54BL/6 (4 mice per group, 8 paws for each condition) were subjected to intraplantar injection of carrageenan (Sigma-Aldrich, 20 μL of a 2% solution % in saline) for inducing inflammatory-type hyperalgesia in the extremities. Six (6) days after injecting carrageenan, the paw withdrawal latency time when the paw is in contact with heat was determined as an indication of inflammatory-type pain at time 0 (T=0). The known p38 MAPK inhibitor SB239063 [trans-4-[4-(4-fluorophenyl)-5-(2-methoxy-4-pyrimidinyl)-1H-imidazol-1-yl]cyclohexanol] (5 μg in 5 μL of 20% DMSO), the carrier (20% DMSO), or Compound 1 at different concentrations (0.5, 1.0 and 1.5 μg in 5 μL of 20% DMSO) was then intrathecally injected.

THP-1 monocytes = test: THP-1 monocyte survival (propidium iodide, FACS); type: cell-based, human; conditions: dose causing the death of 50% of the cells; THP-1, propidium iodide FACS
Protocol: as §1, §2

[4] = system: peritoneal macrophages of WT and GRK2^+/− mice; test: LPS-induced TNF-α secretion in peritoneal macrophages of WT and GRK2+/− mice; type: cell-based; conditions: all doses, FIG. 13
Protocol: GRK2^+/− peritoneal macrophages were subjected to treatment with LPS and TNF secretion was measured in the presence of increasing doses of Compound 1 as described above. The inhibition observed in GRK2^+/− macrophages was greater than that obtained for WT cells for all doses of Compound 1. The data are means of points in duplicate referring in each case to the secretion obtained in WT macrophages in the presence of Compound 1 at the same dose.
TNF-α secretion inhibition in peritoneal macrophages of GRK2^+/− mice with Compound 1 was studied. As can be observed in FIG. 13, the greater effect of Compound 1 on GRK2^+/− macrophages may indicate that cells with a lower GRK2 level, as occurs in immune system cells from patients with inflammatory pathologies (Vroon A, Kavelaars A, Limmroth V, Lombardi M S, Goebel M U, Van Dam A M, Caron M G, Schedlowski M, Heijnen C J., J Immunol., 2005, 174(7), 4400-6) are more sensitive to such inhibition.

TNF-α = TNF-α levels in the spinal cord after intrathecal treatment (ELISA); type: in vivo, mice; conditions: FIG. 11D
Protocol: To find out if TNF-α levels are repressed in vivo after treatment with Compound 1, the spinal cord was isolated two days after intrathecal treatment with said compound and TNF-α levels were analyzed with ELISA.

[5] = system: spinal cord astrocytes and neurons; test: Toxicity at the intrathecal injection site, Fluoro-Jade B staining, LysM-GRK2f/+ mice; type: in vivo; conditions: two days after the injection, FIG. 10
Protocol: Furthermore, the possible toxicity of Compound 1 at the injection site (intrathecal) was measured.

[6] = doses of 1 and 1.5 μg intrathecal

For `Cc1ccc(Cl)cc1Nc1ccc([N+](=O)[O-])c2nonc12` [Compound 1, (5-chloro-2-methyl-phenyl)-(7-nitro-benzo[1,2,5]oxadiazol-4-yl)-amine], the IC50 ([1]; Homo sapiens, Table 2, THP-1, LPS, TNF-α ELISA) was 1.8 ± 0.006 µM, the “activity in TNF-α secretion inhibition compared with comparative Compounds 10-14” value ([1]; human monocytes, FIG. 8) was “greater activity” and the mouse paw thickness [2] was “increased”. For the same compound, the IC50 (p38 MAPK) was 6.5 µM, the analgesic effect ([3]; dose of 0.5 μg intrathecal, 6 days after carrageenan) was “temporary effect” and the “duration of analgesic effect” value [3, 6] was “at least 5 days”. The analgesic effect [3, 6] was “long-term analgesic effect”, the “TD50 (μM)” value (THP-1 monocytes) was “≈200 μM (n = 2)” and the “inhibition of TNF secretion in GRK2+/− macrophages compared with WT cells” value [4] was “greater”. The “TNF-α levels in the spinal cord” value (TNF-α; after intraplantar carrageenan, two days after intrathecal treatment) was “significantly reduces”, the “TNF-α secretion, compound alone” value (TNF-α; without carrageenan) was “has no effect” and the “neurotoxicity at the injection site (Fluoro-Jade B, dead or damaged cells)” value [5] was “no signs of neurotoxicity were detected; also recorded: hardly any dead cells”.
